In ChEMBL document CHEMBL4706697, “Structure-based designing and synthesis of 2-phenylchromone derivatives as potent tyrosinase inhibitors: In vitro and in silico studies” (Bioorg Med Chem, 2021):

Tests used:
Mushroom tyrosinase [1] = target: T1, Mushroom tyrosinase (Agaricus bisporus, UniProt O42713+Q00024+C7FF04+C7FF05); test: Inhibition of mushroom tyrosinase using L-Dopa as substrate preincubated for 10 mins followed by substrate addition and measured after 20 mins
Mushroom tyrosinase [2] = target: T1, Mushroom tyrosinase; test: Inhibition of mushroom tyrosinase using L-Dopa as substrate […]
Mushroom tyrosinase [3] = target: T1, Mushroom tyrosinase; test: Inhibition of mushroom tyrosinase

SMILES | IC50 (Mushroom tyrosinase [1]) | further results
O=c1cc(-c2cccc([N+](=O)[O-])c2)oc2cc(Br)cc(Br)c12 | 3.28 µg/mL | 
O=c1c(O)c(-c2cccc([N+](=O)[O-])c2)oc2cc(Br)cc(Br)c12 | 0.15 µg/mL | 
O=c1c(O)c(-c2cccc3ccccc23)oc2cc(Br)cc(Br)c12 | 0.564 µg/mL | 
O=c1c(O)c(-c2c[nH]c3ccccc23)oc2cc(Br)cc(Br)c12 | 23.58 µg/mL | 
CCN1CCN(CC(=O)Nc2ccc3oc(-c4ccc(C(C)(C)C)cc4)nc3c2)CC1 |  | IC50 (Mushroom tyrosinase [2]): 8.14 µM
O=c1cc(-c2c[nH]c3ccccc23)oc2cc(Br)cc(Br)c12 | 0.22 µg/mL | 
O=c1cc(-c2ccc([N+](=O)[O-])cc2)oc2cc(Br)cc(Br)c12 | 0.27 µg/mL | 
O=c1cc(-c2cccc3ccccc23)oc2cc(Br)cc(Br)c12 | 3.41 µg/mL | 
O=C(O)S[C@H]1N=N[C@@H](NC(=S)Nc2cccc(C(F)(F)F)c2)S1 |  | IC50 (Mushroom tyrosinase [2]): 6.13 µM
O=c1c(O)c(-c2ccc(Cl)cc2)oc2cc(Br)cc(Br)c12 | 0.71 µg/mL | 
COc1ccc(/C=C2\NC(=S)NC2=O)c(OC)c1 |  | IC50 (Mushroom tyrosinase [2]): 1.07 µM
O=c1c(O)c(-c2ccco2)oc2cc(Br)cc(Br)c12 | 2.5 µg/mL | 
O=C(O)c1ccc(-c2oc3cc(Br)cc(Br)c3c(=O)c2O)cc1 | 4.26 µg/mL | 
Cc1ccc(S(=O)(=O)n2cc(-c3cc(=O)c4c(Br)cc(Br)cc4o3)c3ccccc32)cc1 | 22.22 µg/mL | 
O=c1c(O)c(-c2cccs2)oc2cc(Br)cc(Br)c12 | 3.01 µg/mL | 
O=C(Nc1cccc(Cl)c1)Nc1ccc2c(c1)S(=O)(=O)NC2=O |  | IC50 (Mushroom tyrosinase [2]): 5.85 µM
Cc1ccc(S(=O)(=O)n2cc(-c3oc4cc(Br)cc(Br)c4c(=O)c3O)c3ccccc32)cc1 | 8.175 µg/mL | 
O=c1c(O)c(-c2ccc([N+](=O)[O-])cc2)oc2cc(Br)cc(Br)c12 | 0.27 µg/mL | 
O=c1cc(-c2ccc(Cl)cc2)oc2cc(Br)cc(Br)c12 | 4.2 µg/mL | 
O=C(O)c1ccc(-c2cc(=O)c3c(Br)cc(Br)cc3o2)cc1 | 9.7 µg/mL | 
C=CCc1ccc(OC(=O)COC(=O)/C=C/c2ccc(O)cc2)c(OC)c1 |  | IC50 (Mushroom tyrosinase [3]): 3 µM
O=c1cc(-c2ccco2)oc2cc(Br)cc(Br)c12 | 2.07 µg/mL | 
O=c1c(O)c(-c2ccc(O)cc2)oc2ccccc12 | 0.23 µM | 
O=c1cc(-c2cccs2)oc2cc(Br)cc(Br)c12 | 0.68 µg/mL | 

Second part, led by results:

IC50 (Mushroom tyrosinase [1]) | SMILES | further results
7.57 µg/mL | Cc1ccc(-c2oc3cc(Br)cc(Br)c3c(=O)c2O)c(C)c1 | 
7.2 µg/mL | Cc1ccc(-c2cc(=O)c3c(Br)cc(Br)cc3o2)cc1 | 
0.093 µg/mL | COc1ccc(-c2oc3cc(Br)cc(Br)c3c(=O)c2O)cc1OC | 
11.33 µg/mL | Cc1ccc(-c2cc(=O)c3c(Br)cc(Br)cc3o2)c(C)c1 | 
0.126 µg/mL | Cc1ccc(-c2oc3cc(Br)cc(Br)c3c(=O)c2O)cc1 | 
20.5 µg/mL | O=c1cc(-c2ccc(F)cc2)oc2cc(Br)cc(Br)c12 | 
0.49 µg/mL | COc1ccc(-c2cc(=O)c3c(Br)cc(Br)cc3o2)cc1OC | 
0.5 µg/mL | CN(C)c1ccc(-c2oc3cc(Br)cc(Br)c3c(=O)c2O)cc1 | 
0.57 µg/mL | CN(C)c1ccc(-c2cc(=O)c3c(Br)cc(Br)cc3o2)cc1 | 
2.36 µg/mL | O=c1c(O)c(-c2ccc(F)cc2)oc2cc(Br)cc(Br)c12 | 
